Data taken from publication PMC3851574 (Journal of structural biology, 2013).

Biological target: T1, GCN4-Kar3Cik1 (Kar3Cik1) (Saccharomyces cerevisiae, UniProt P17119)
T1 sequence (P17119 353-729): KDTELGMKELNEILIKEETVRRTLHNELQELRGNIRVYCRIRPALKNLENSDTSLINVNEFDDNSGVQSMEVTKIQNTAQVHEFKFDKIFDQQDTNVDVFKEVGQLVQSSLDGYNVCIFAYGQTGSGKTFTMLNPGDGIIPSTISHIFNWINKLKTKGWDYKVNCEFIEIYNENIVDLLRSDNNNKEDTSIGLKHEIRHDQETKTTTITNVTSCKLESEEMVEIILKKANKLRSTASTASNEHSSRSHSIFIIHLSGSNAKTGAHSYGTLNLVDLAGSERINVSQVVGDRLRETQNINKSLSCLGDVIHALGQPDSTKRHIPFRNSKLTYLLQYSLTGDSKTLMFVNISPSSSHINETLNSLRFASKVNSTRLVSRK
T1 sequence (Q01649 344-594 partner): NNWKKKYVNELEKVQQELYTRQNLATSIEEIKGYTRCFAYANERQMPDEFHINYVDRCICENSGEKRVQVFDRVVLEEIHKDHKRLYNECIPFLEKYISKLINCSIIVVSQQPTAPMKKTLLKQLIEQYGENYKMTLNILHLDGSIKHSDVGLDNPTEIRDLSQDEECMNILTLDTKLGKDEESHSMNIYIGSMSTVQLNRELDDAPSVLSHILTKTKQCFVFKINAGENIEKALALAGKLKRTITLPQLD
Experiment: cryo-EM and unidirectional metal shadowing of microtubule decoration
Format: binding
Settings: 1 mM ADP; bovine brain microtubules; ATPase buffer pH 7.2

Nc1ncnc2c1ncn2[C@@H]1O[C@H](COP(=O)(O)OP(=O)(O)O)[C@@H](O)[C@H]1O [ADP]
cryo-EM and unidirectional metal shadowing of microtubule decoration: Excess ADP significantly lowered the microtubule-binding affinity of Kar3Cik1 in our experiments
